Assay results: US20050228007A1, “Isoquinoline derivatives and methods of use thereof” (priority 2004, published 2005)
Counter-ions that a name gives are not always drawn. Like-named read-outs stand apart in the source and are kept apart here.

Assays:
PARS = target: T1, PARS (Mus musculus, UniProt P11103); assay: PARS activation in peroxynitrite-treated cultured macrophages (whole-cell 3H-NAD+ assay); type: cell-based; conditions: cultured murine macrophages
T1 construct: endogenous in cells; host or cells: RAW mouse macrophages
T1 sequence (P11103 whole entry): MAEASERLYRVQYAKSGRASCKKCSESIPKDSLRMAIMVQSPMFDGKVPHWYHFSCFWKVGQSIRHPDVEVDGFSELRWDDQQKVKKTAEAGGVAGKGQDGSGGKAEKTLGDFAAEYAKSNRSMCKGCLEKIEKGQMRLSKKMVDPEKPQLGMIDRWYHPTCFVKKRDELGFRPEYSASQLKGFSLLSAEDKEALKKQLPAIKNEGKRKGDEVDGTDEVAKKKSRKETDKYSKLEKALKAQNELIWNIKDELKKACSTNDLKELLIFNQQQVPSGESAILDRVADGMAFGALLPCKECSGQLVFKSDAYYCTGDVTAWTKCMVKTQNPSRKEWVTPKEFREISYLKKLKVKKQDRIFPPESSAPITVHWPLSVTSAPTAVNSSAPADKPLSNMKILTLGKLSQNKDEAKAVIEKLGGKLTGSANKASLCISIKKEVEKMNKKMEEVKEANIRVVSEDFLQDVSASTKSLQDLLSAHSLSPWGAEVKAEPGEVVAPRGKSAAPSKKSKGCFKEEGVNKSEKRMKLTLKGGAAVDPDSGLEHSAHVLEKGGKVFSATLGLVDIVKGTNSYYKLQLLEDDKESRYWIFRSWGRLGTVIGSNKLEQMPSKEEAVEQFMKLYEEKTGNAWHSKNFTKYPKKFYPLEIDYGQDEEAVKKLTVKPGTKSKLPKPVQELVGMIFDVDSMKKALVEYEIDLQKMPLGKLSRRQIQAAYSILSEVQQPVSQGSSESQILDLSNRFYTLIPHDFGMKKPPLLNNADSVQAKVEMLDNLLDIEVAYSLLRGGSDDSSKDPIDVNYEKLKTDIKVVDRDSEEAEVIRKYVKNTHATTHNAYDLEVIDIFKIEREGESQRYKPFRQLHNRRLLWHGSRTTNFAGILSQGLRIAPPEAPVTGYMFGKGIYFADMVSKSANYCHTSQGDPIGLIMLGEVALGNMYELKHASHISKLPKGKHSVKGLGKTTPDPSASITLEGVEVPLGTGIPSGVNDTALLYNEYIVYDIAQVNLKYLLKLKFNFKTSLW
Description: Raw mouse macrophages were cultured in DMEM medium with high glucose and supplemented with 10% fetal bovine serum. Cells were used at 80% confluence in 12-well plates. Cells were pretreated with various concentrations (100 nM -1 µM) of an Isoquinoline Derivative for 10 min. Peroxynitrite, a prototypical oxidant which induces DNA single strand breakage, was used to induce PARS activation. Peroxynitrite was diluted in phosphate buffered saline (PBS) (pH 11.0) and added to the cells in a bolus of 50 μl. Cells were then incubated for 20 min. […] After the 20 min incubation, the cells were spun, the medium was aspirated and the cells were resuspended in 0.5 ml assay buffer (56 mM HEPES pH 7.5, 28 mM KCl, 28 mM NaCl, 2 mM MgCl2, 0.01% w/v digitonin and 0.125 μM NAD^+ and 0.5 μCi/ml ^3H-NAD^+). Following an incubation in assay buffer, (10 min at 37° C.), PARS activity was measured as follows: 200 μl ice cold 50% w/v TCA was added and the samples were incubated for 4 hours at 4° C. Samples were then spun (10 min @ 10,000 g) and pellets washed twice with ice cold 5% w/v TCA and solubilized overnight in 250 μl 2% w/v SDS/0.1 N NaOH at 37° C. The contents of the tubes were added to 6.5 ml ScintiSafe Plus scintillation liquid (Fisher Scientific) and radioactivity was determined using a liquid scintillation counter (Wallac, Gaithersburg, Md.).

TNF-alpha = assay: LPS induced TNF production in mice; type: in vivo; parameters: unit not given here; conditions: LPS 10 mg/kg i.p., plasma at 90 minutes, vehicle 6994.0 ± 904.4, 8l as mesylate salt
[1] = tested on: streptozotocin (STZ) induced hyperglycemia; assay: Single high-dose streptozotocin model of diabetes; type: in vivo, mice; conditions: 3 mg/kg i.p.; STZ 160 mg/kg; blood sugar 3 days later; STZ + vehicle 320 ± 13, basal 153 ± 21; 8l as mesylate salt
Description: PARS inhibitors and PARS deficiency are known to reduce the development of diabetes and the incidence of diabetic complications (Mabley et al., Br J. Pharmacol. 2001, 133(6):909-9; and Soriano et al., Nat Med. 2001, 7(1):108-13). […] Briefly, 160 mg/kg streptozotocin was injected to mice treated with vehicle or with illustrative Isoquinoline Derivatives intraperitoneally (3 mg/kg) and 3 days later blood sugar levels were determined using a blood glucose meter.

[2] = tested on: middle cerebral artery occlusion/reperfusion; assay: Rat model of middle cerebral artery occlusion/reperfusion; type: in vivo; conditions: 3 mg/kg/day in 3 divided i.p. doses; 2 h occlusion, 24 h reperfusion; vs vehicle-treated controls
Description: Occlusion lasted for 2 hours, followed by reperfusion for 24 hours. Infarct size was quantified with tetrazolium staining. […] There was an approximately 80% reduction in the degree of cortical necrosis and neuronal death in the animals administered with 8l (mesylate salt), when compared to vehicle-treated controls.

Balb/c mice = assay: LPS (endotoxin) induced mortality; type: in vivo; conditions: 3 mg/kg/day; 100 mg/kg LPS i.p.; over 24 h; untreated 50%
CLP induced shock = assay: Cecal ligation and puncture (CLP) induced shock mortality; type: in vivo; conditions: 3 mg/kg/day; over 24 h; untreated 100% death
[3] = tested on: ischemic and reperfused gut; assay: Mouse model of ischemic and reperfused gut
Description: In order to substantiate the efficacy of the Isoquinoline Derivatives in ischemia-reperfusion conditions, the effect of an illustrative Isoquinoline Derivative in a mouse model of ischemic and reperfused gut was tested. […] Following the end of the reperfusion, gut permeability was measured with the FD4 method in evened gut sacks (Liaudet et al., Shock 2000, 14(2): 134-41).

thymocytes = conditions: peroxynitrite induced, control 98%
Description: In addition in vitro studies in isolated thymocytes, cells were exposed to peroxynitrite or hydrogen peroxide (toxic oxidant species) to induce cytotoxicity.

## O=c1[nH]c2c(c3ccccc13)Cc1cc(S(=O)(=O)NCCN3CCOCC3)ccc1-2 [Compound 8j, 9-[N-(2-[morpholino-4-yl]ethyl)-aminosulphonyl]-5,6-dihydro-5-oxo-11H-indeno[1,2-c]isoquinoline]
PARS; 100 nM
  % PARS inhibition at 100 nM: 34%
PARS; 300 nM
  % PARS inhibition at 300 nM: 76%
TNF-alpha; 0.1 mg/kg i.p. pretreatment
  TNF: 3831.6 ± 385.2
TNF-alpha; 1.0 mg/kg i.p. pretreatment
  TNF: 5038.8 ± 377.1
[1]
  Glucose: 253 ± 24 mg/dL

## O=c1[nH]c2c(c3ccccc13)Cc1cc(S(=O)(=O)NCCCN3CCOCC3)ccc1-2 [Compound 8l (mesylate salt), 9-[N-(3-[morpholino-4-yl]propyl)-aminosulphonyl]-5,6-dihydro-5-oxo-11H-indeno-[1,2c]isoquinoline]
[2]
  reduction in the degree of cortical necrosis and neuronal death: approximately 80%
Balb/c mice
  endotoxin-induced mortality: 10%
CLP induced shock
  mortality (death) in CLP induced shock: 60%
[3]; 3 mg/kg i.v. 10 min prior to reperfusion, 45 min occlusion, 1 h reperfusion, FD4 method
  reduction of the increase in the permeability of the gut: approximately 73%
[3]; gut ischemia-reperfusion, over 12 hours, untreated 80%
  mortality: 15%

## O=c1[nH]c2c(c3ccccc13)Cc1cc(S(=O)(=O)NCCCN3CCOCC3)ccc1-2 [Compound 8l, 9-[N-(3-[morpholino-4-yl]propyl)-aminosulphonyl]-5,6-dihydro-5-oxo-11H-indeno-[1,2c]isoquinoline]
thymocytes; 30 nM 8l (mesylate salt per title)
  Cytotoxicity: 74%
thymocytes; 100 nM 8l (mesylate salt per title)
  Cytotoxicity: 39%
thymocytes; 300 nM 8l (mesylate salt per title)
  Cytotoxicity: 2%
thymocytes; 1 μM 8l (mesylate salt per title)
  Cytotoxicity: 0%
thymocytes; 3 μM 8l (mesylate salt per title)
  Cytotoxicity: 0%
[1]
  Glucose: 244 ± 21 mg/dL

## CCN(CC)CCN(CCN(CC)CC)S(=O)(=O)c1ccc2c(c1)=Cc1c3c(c(=O)[nH]c1=2)=CC=CC3 [Compound 8p, 9-[N,N-di-(2-[N,N-diethylamino]ethyl)-aminosulphonyl]-5,6-dihydro-5-oxo-1H-indeno-[1,2-c]isoquinoline]
PARS; 100 nM
  inhibition at 0.1 µM: 27%
PARS; 300 nM
  inhibition at 0.3 µM: 45%
TNF-alpha; 0.1 mg/kg i.p. pretreatment
  TNF: 4470.0 ± 184.4
TNF-alpha; 1.0 mg/kg i.p. pretreatment
  TNF: 5090.8 ± 203.7
[1]
  Glucose: 264 ± 24 mg/dL
